Assays:
[1] = Solubility in capsule fill solvents; type: physicochemical; conditions: for Dye Solubility: 4320 min
Method: The encapsulation process requires the color-forming ligand be dissolved in a solvent or mixed solvents, because of the nature of the procedure. Formation of a microcapsule shell as by condensation of urea or melamine with an aldehyde such as formaldehyde or mixtures of aldehydes to form the capsule shell is carried out in an acidic aqueous medium and the color-former solution must be insoluble and unreactive to these reagents for the encapsulation to proceed. Solvents commonly used include tributyl phosphate, diethyl phthalate, and cyclohexane. […] As mentioned above, solubility of yellow color-formers exemplified by structure I in nonaqueous solvents such as those used in the encapsulation process may be increased by substituting alkyl, aryl, aralkyl, alkenyl, or such groups for the hydrogens on the various positions available in the structure I above.
(§1) This color observed on the CF sheet was yellow. […] Solubility in a solvent blend of tributyl phosphate, diethyl phthalate and cyclohexane (capsule solvents for preparing carbonless copy-paper) was >9% by weight. Thus the ligand is eminently suitable for encapsulation. The ligand is not volatile at 71 ° C. overnight.
Solubility in a solvent blend of tributyl phosphate, diethyl phthalate and cyclohexane (capsule solvents for preparing carbonless copy-paper) was 3% by weight. Thus the ligand is eminently suitable for encapsulation. The ligand is not volatile at 71 ° C. overnight.
*THE SOLUBILITY WAS DEEMED PREFERABLE IF IT WAS GREATER THAN 2% IN THE
FILL MIX AT ROOM TEMPERATURE FOR 3 DAYS. THE FILL MIX COMPRISED
TRIBUTYLPHOSPHATE (26.5%); DIETHYLPHTHALATE (17.6%); AND CYCLOHEXANE

[2] = Color (Hunter coordinates) of Ni complex, swabbed on Ni-coated receptor (CF) sheet; type: physicochemical; set-up: key to Hunter coordinate a / Hunter Coordinates a: Hunter a: +a red, -a green; key to Hunter coordinate b / Hunter Coordinates b: Hunter b: +b yellow, -b blue; conditions: for Chroma: C=(a^2 +b^2)^1/2; for Chroma / Image Color / Hunter Coordinates L / Hunter Coordinates a / Hunter Coordinates b: Ni(II) complex; for Chroma / Image Color: swab concn. 1% (Table 2); for Hunter Coordinates L / Hunter Coordinates a / Hunter Coordinates b: swab concn. 1%, 45°/0° reflectance, illuminant C (Table 2)
Method: In general, the colors of the complexes, as listed in Table 2 and Experiments 4, 6, and 7 below, were determined by preparing a 1% solution of the color-former or mixture of color-formers in an appropriate solvent. Unless otherwise indicated, the solvent was composed of a mixture of tributyl phosphate (26.5%), diethyl phthalate (17.6%), and cyclohexane (55.9%). The images were formed by applying two stripes of the solution to a substrate coated with a Ni^2+ coated receptor sheet using a cotton tipped applicator swab. Rapid and complete development of the image was achieved by passing the sheet through a hot shoe adjusted to 102° C., making a revolution every 10 seconds. The visually observed colors were measured and recorded.
One method of color measurement is to determine the color's position in color space. One color space system is the Hunter System; see F. W. Billmeyer, Jr., and M. Saltzman, Principles of Color Technology; John Wiley & Sons; New York, N.Y.; Ch. 2 & 3, 1981. In this system three mutually perpendicular axes (L, a, and b) are needed to define a color. "L" (+z axis) represents the lightness or darkness of the image; "a" (x axis) represents the amount of red or green (+a is red, -a is green); and "b" (y axis) represents the amount of yellow or blue (+b is yellow, -b is blue). By measuring a material's L, a, and b values, the color of one sample can be compared with that of other samples. Another value used in the Hunter System is Chroma (C). Chroma is defined by the equation [C=(a^2 +b^2)^1/2 ] and represents the distance of the image coordinates from the origin. The greater the Chroma, the more intense the image. Chroma is used to compare images cf the same hue. Because the color of a sample is also dependent upon the color temperature of the illuminating source, the angle at which the sample is illuminated, the angle at which the illumination is reflected, and the angle of the retina illuminated, these all need to be specified. Many instruments have been developed to record these values. One such instrument is the HunterLab LabScan II. This instrument is capable of automatically determining the L, a, and b values for a given sample, and was used for the following examples.
The L, a, and b color coordinates of the more uniform stripe were measured for 45°/0° reflectance on a HunterLab LabScan II, secondary observer, using illuminant C. The observed (image) color and the Hunter coordinates for Ni^2+ complexes of the yellow color-formers of this invention are given in Table 2.
A 1% solution of the condensation product in the encapsulation fill mix was swabbed onto a carbonless paper CF sheet (sold by the 3M Co. St. Paul, Minn.) with a cotton swab. The reflectance spectra had Hunter coordinates of: […]

[3] = Imaging of CB sheet with encapsulated color-former on Ni-coated CF sheet; type: physicochemical; conditions: carbonless paper capsules
Method: A precondensate solution was prepared comprising 192 g of formalin, 0.63 g of potassium tetraborate, 72 g of urea, and 328 g of soft water. The formalin was 37% formaldehyde and was added to a 1-liter flask equipped with a stirrer and heating mantle. The potassium tetraborate and urea were then added, and the mixture was heated to 70° C. The reaction was maintained at that temperature for 2.5-3.0 hr. The reaction mixture was then diluted with the water and allowed to cool. The precondensate solution, with about 24% solids, was then ready for use in the encapsulation process.
The precondensate and fill (ethanediimidic acid bis[hydrazide] and carrier or fill solvents) were combined to make capsules according to the following procedure. Sodium chloride (29.54 g) was added to the stirred precondensate solution and the temperature of the solution was adjusted to 20° C. The fill material (215 g) was added and full agitation was begun. After 5 minutes of stirring, 10% hydrochloric acid solution was added over 5 minutes in an amount such that the final pH of the reaction mixture was about 2.8. The reaction mixture was stirred for another 12 minutes. More of the 10% hydrochloric acid solution was added over a period of 12 minutes, in an amount such that the final pH of the solution was about […]. The reaction mixture was stirred at 20° C. for 1 hr, and then at 60° C. for 1-3 hr. The acidic solution was allowed to cool and adjusted to a pH of 7 by addition of concentrated ammonium hydroxide solution (28%). The capsule slurry could then be stored for later use.
The capsule slurry (10 g) was added to 65 g of a 1.5% aqueous sodium alginate solution. The mixture was applied to a coated paper using a bar coater with a 3 mil gap. The coating was allowed to dry at room temperature.
A 2% solution of the compound 1 in the capsule fill solvent of diethyl phthalate, tributyl phosphate, and cyclohexane was encapsulated by the procedure described in Experiment 5 above. A coating mixture of 10.0 g of capsule slurry, 2.5 g of Dow-620 butadiene-styrene latex, and 62.5 g of 1.5% sodium alginate slurry was coated onto paper by the draw down procedure described above.
A 7.5% solution comprising 5.45% N-(5-octanoylamido-2-metylpentyl)dithiooxamide/N-(5-octanoylamido-4-methylpentyl)dithiooxamide (G') mixture and 2.05% N,N'-di(5-octanoylamido-2-methylpentyl)dithiooxamide/N-(5-octanoylamido-2- methylpentyl)-N'-(5-octanoylamido-4-methylpentyl)dithiooxamide/N,N'-(5-octanoylamido-2-methylpentyl)dithiooxamide (G) mixture in the fill solvent mixture of diethyl phthalate, tributyl phosphate, and cyclohexanone was encapsulated by the procedure described above. A coating mixture of 10.0 g of capsule slurry, 2.5 g of Dow 620 styrene-butadiene latex, and 62.5 g of 1.5% sodium alginate solution was coated onto paper by the draw down procedure described in Experiment 5 above.
A blend was prepared of 10 g of the capsule slurry containing compound 1, with 10 g of capsule slurry containing 5.45% N-(5-octanoylamido-2-methylpentyl)dithiooxamide/N-(5-octanoylamido-4-methylpentyl)dithiooxamide (G') mixture and 2.05% N,N'-di(5-octanoylamido-2-methylpentyl)dithiooxamide/N-(5-octanoylamido-2- methylpentyl)-N'-(5-octanoylamido-4-methylpentyl)dithiooxamide/N,N'-di(5-octanoylamido-4-methylpentyl)dithiooxamide (G) mixture. […]

[4] = Volatility: transfer from simulated donor sheet to receptor sheet; type: physicochemical; conditions: 71 ° C. overnight
Text: The method utilized in the experiments to both define and evaluate the level of volatility was as follows. A single sheet piece of Grade #10 (20×12 cm) cheesecloth (AF & F., Item No. 588033, American Fiber and Finishing, Inc., Burlington, Mass.) was placed between a simulated donor sheet and a receptor sheet of a carbonless paper construction. The simulated donor sheet comprised a sheet of paper saturated with color-former of structure I, which was used to simulate a CB sheet with ruptured capsules. Pressure was then applied for 24 hours by placing 9 pounds of paper on top of the sheets, to simulate storage conditions of the paper packages. The formation of color on the receptor sheet, due to transfer of volatile color-former thereto, was used as an indication that the particular color-former was less than optimally desirable for carbonless paper constructions, i.e., was volatile. A compound was considered generally to be nonvolatile, within the meaning of the term as used herein to define the present invention and thus to define color-formers most acceptable for use in carbonless image transfer arrangements, if no color was formed after the simulated test was run for about 24 hours at 25° C. In some instances, if no color was formed after storage at room temperature (25° C.), successively higher temperatures were used, as for example 49° C., 60° C., and 71° C. […]

[5] = Color formation with zinc salts (zinc rosinate); type: physicochemical
Method: as §1
This color observed on the CF sheet was yellow.

[6] = Stability in concentrated hydrochloric acid; type: physicochemical
[7] = background art; cited from earlier work
[8] = 1% solution in encapsulation fill mix swabbed onto 3M CF sheet (Experiments 2, 3)

Dye Solubility [1] | Chroma [2] | Image Color [2] | Hunter Coordinates L [2] | Hunter Coordinates a [2] | Hunter Coordinates b [2] | color developed upon imaging [3] | volatility [4] | Solubility in a solvent blend of tributyl phosphate, diethyl phthalate and cyclohexane [1] | color formation when reacted with zinc rosinate [5] | Hunter coordinate L [2, 8] | Hunter coordinate a [2, 8] | Hunter coordinate b [2, 8] | color observed on the CF sheet ([2]; 1% solution swabbed (Experiments 2, 3)) | stability in concentrated hydrochloric acid [6] | SMILES | solubility in encapsulation / capsule solvents (in words) [1] | image color with metal [7]
< 2.0% | 40.7 | Yellow | 84.5 | -9.7 | 39.5 | weak and often unacceptable | – | – | – | – | – | – | – | – | NC(=NN=Cc1ccccc1O)C(N)=NN=Cc1ccccc1O [Compound 9, Ethanediimidic acid bis[(2-hydroxyphenylmethylene)hydrazide]] | too low in the solvent blend used in many carbonless paper capsules | –
> 3.0% | 41.6 | Yellow | 82.5 | -6.6 | 41.0 | – | not volatile | 3 % by weight | does not form color | 82.5 | -6.64 | 41.0 | yellow | stable | C=CCc1cccc(C=NN=C(N)C(N)=NN=Cc2cccc(CC=C)c2O)c1O [Compound 16, ethanediimidic acid bis[(3-allylsalicylidene)hydrazide]] | good solubility in capsule solvents | –
– | – | – | – | – | – | – | – | – | – | – | – | – | – | – | S=C(NCc1ccccc1)C(=S)NCc1ccccc1 [H, N,N'-di(benzyl)dithiooxamide] | – | blue-purple

Source: US5204311A, “Ethanediimidic acid bis[(arylalkylidene)hydrazide] color-formers” (Minnesota Mining and Manufacturing Company, priority 1991, dated 1993)
